Patent publication US9326506B2, “Preparation method, agricultural composition and applications of natural brassinolide analogs” (CHENGDU NEWSUN CROPSCIENCE CO., LTD, priority 2012, dated 2016)

Tested on: rice
Experiment: Low temperature assay on rice seedlings
Assay type: in vivo
Procedure: According to a low temperature assay, we measured parameters including plant height, number of leaf, area of leaf, number of tiller, weight of root at low temperature to completely determine effects of the natural brassinolide analogues on the resistance to low temperature of a plant.
The natural brassinolide analogues, BR1, BR2, BR3, BR4, BR5 and BR6, used herein, were those prepared by the method of Example 1. Respectively the analogues were dissolved into 95% (V/V) ethanol solution, and then diluted with pure water to 1 mg/L, 0.1 mg/L, 0.01 mg/L, 0.001 mg/L and 0.0001 mg/L. In addition, pure water was used as a control.
After rice seeds were disinfected by using 5% sodium hypochlorite solution treatment, they were rinsed with distilled water until their pH>7, placed into a petri dish in a dark incubator, and cultured by using water at 30° C.±2° C. for 9 days. Then respectively the nine-day-old etiolated seedlings of rice were immersed in the above solutions containing different concentrations of the natural brassinolide analogues or pure water, and cultured at the temperature of 1° C., 2° C., 3° C., 4° C. and 5° C. for 24 hr. The parameters including plant height, area of leaf and weight of root after 3, 6, 9 and 12 days and number of leaf and number of tiller after 12 days were measured.

Structure (SMILES): C=C(C(C)C)[C@@H](O)[C@H](O)[C@@H](C)[C@H]1CCC2C3COC(=O)C4C[C@H](O)[C@H](O)C[C@]4(C)C3CC[C@@]21C (stereo partly shown) [BR3]
- Height (0.01 mg/l, 3 °C, 9 days): 7.5 cm
- Weight of root (0.01 mg/l, 3 °C, 9 days): 2.9 g
- Area of leaf (0.01 mg/l, 3 °C, 12 days): 13.2 cm^2
- Height (0.01 mg/l, 3 °C, 12 days): 7.8 cm
- Number of leaf (0.01 mg/l, 3 °C, 12 days): 3
- Number of tiller (0.01 mg/l, 3 °C, 12 days): 2
- Weight of root (0.01 mg/l, 3 °C, 12 days): 2.9 g
- Area of leaf (0.01 mg/l, 4 °C, 3 days): 10.8 cm^2
- Height (0.01 mg/l, 4 °C, 3 days): 7.1 cm
- Weight of root (0.01 mg/l, 4 °C, 3 days): 2.5 g
- Area of leaf (0.01 mg/l, 4 °C, 6 days): 12.4 cm^2
- Height (0.01 mg/l, 4 °C, 6 days): 7.4 cm
- Weight of root (0.01 mg/l, 4 °C, 6 days): 2.6 g
- Area of leaf (0.01 mg/l, 4 °C, 9 days): 13 cm^2
- Height (0.01 mg/l, 4 °C, 9 days): 7.7 cm
- Weight of root (0.01 mg/l, 4 °C, 9 days): 2.9 g
- Area of leaf (0.01 mg/l, 4 °C, 12 days): 13.5 cm^2
- Height (0.01 mg/l, 4 °C, 12 days): 7.8 cm
- Number of leaf (0.01 mg/l, 4 °C, 12 days): 3
- Number of tiller (0.01 mg/l, 4 °C, 12 days): 2
- Weight of root (0.01 mg/l, 4 °C, 12 days): 3.0 g
- Area of leaf (0.01 mg/l, 5 °C, 3 days): 10.3 cm^2
- Height (0.01 mg/l, 5 °C, 3 days): 7.4 cm
- Weight of root (0.01 mg/l, 5 °C, 3 days): 2.8 g
- Area of leaf (0.01 mg/l, 5 °C, 6 days): 13.1 cm^2
- Height (0.01 mg/l, 5 °C, 6 days): 7.6 cm
- Weight of root (0.01 mg/l, 5 °C, 6 days): 3.0 g
- Area of leaf (0.01 mg/l, 5 °C, 9 days): 16.4 cm^2
- Height (0.01 mg/l, 5 °C, 9 days): 7.8 cm
- Weight of root (0.01 mg/l, 5 °C, 9 days): 3.4 g
- Area of leaf (0.01 mg/l, 5 °C, 12 days): 17 cm^2
- Height (0.01 mg/l, 5 °C, 12 days): 8.2 cm
- Number of leaf (0.01 mg/l, 5 °C, 12 days): 4
- Number of tiller (0.01 mg/l, 5 °C, 12 days): 3
- Weight of root (0.01 mg/l, 5 °C, 12 days): 3.9 g
- Area of leaf (0.1 mg/l, 1 °C, 3 days): 10.1 cm^2
- Height (0.1 mg/l, 1 °C, 3 days): 7.1 cm
- Weight of root (0.1 mg/l, 1 °C, 3 days): 2.8 g
- Area of leaf (0.1 mg/l, 1 °C, 6 days): 11 cm^2
- Height (0.1 mg/l, 1 °C, 6 days): 7.2 cm
- Weight of root (0.1 mg/l, 1 °C, 6 days): 2.9 g
- Area of leaf (0.1 mg/l, 1 °C, 9 days): 12.1 cm^2
- Height (0.1 mg/l, 1 °C, 9 days): 7.3 cm
- Weight of root (0.1 mg/l, 1 °C, 9 days): 3.4 g
- Area of leaf (0.1 mg/l, 1 °C, 12 days): 13.1 cm^2
- Height (0.1 mg/l, 1 °C, 12 days): 7.4 cm
- Number of leaf (0.1 mg/l, 1 °C, 12 days): 3
- Number of tiller (0.1 mg/l, 1 °C, 12 days): 3
- Weight of root (0.1 mg/l, 1 °C, 12 days): 3.6 g
- Area of leaf (0.1 mg/l, 2 °C, 3 days): 10.4 cm^2
- Height (0.1 mg/l, 2 °C, 3 days): 7.1 cm
- Weight of root (0.1 mg/l, 2 °C, 3 days): 2.8 g
- Area of leaf (0.1 mg/l, 2 °C, 6 days): 11.2 cm^2
- Height (0.1 mg/l, 2 °C, 6 days): 7.3 cm
- Weight of root (0.1 mg/l, 2 °C, 6 days): 3.0 g
- Area of leaf (0.1 mg/l, 2 °C, 9 days): 12.6 cm^2
- Height (0.1 mg/l, 2 °C, 9 days): 7.3 cm
- Weight of root (0.1 mg/l, 2 °C, 9 days): 3 g
- Area of leaf (0.1 mg/l, 2 °C, 12 days): 13.2 cm^2
- Height (0.1 mg/l, 2 °C, 12 days): 7.4 cm
- Number of leaf (0.1 mg/l, 2 °C, 12 days): 3
- Number of tiller (0.1 mg/l, 2 °C, 12 days): 3
- Weight of root (0.1 mg/l, 2 °C, 12 days): 3.2 g
- Area of leaf (0.1 mg/l, 3 °C, 3 days): 10.5 cm^2
- Height (0.1 mg/l, 3 °C, 3 days): 7.3 cm
- Weight of root (0.1 mg/l, 3 °C, 3 days): 2.5 g
- Area of leaf (0.1 mg/l, 3 °C, 6 days): 12 cm^2
- Height (0.1 mg/l, 3 °C, 6 days): 7.4 cm
- Weight of root (0.1 mg/l, 3 °C, 6 days): 2.7 g
- Area of leaf (0.1 mg/l, 3 °C, 9 days): 12.1 cm^2
- Height (0.1 mg/l, 3 °C, 9 days): 7.8 cm
- Weight of root (0.1 mg/l, 3 °C, 9 days): 2.7 g
- Area of leaf (0.1 mg/l, 3 °C, 12 days): 13.4 cm^2
- Height (0.1 mg/l, 3 °C, 12 days): 7.9 cm
- Number of leaf (0.1 mg/l, 3 °C, 12 days): 3
- Number of tiller (0.1 mg/l, 3 °C, 12 days): 2
- Weight of root (0.1 mg/l, 3 °C, 12 days): 2.9 g
- Area of leaf (0.1 mg/l, 4 °C, 3 days): 10.8 cm^2
- Height (0.1 mg/l, 4 °C, 3 days): 7.4 cm
- Weight of root (0.1 mg/l, 4 °C, 3 days): 2.5 g
- Area of leaf (0.1 mg/l, 4 °C, 6 days): 12 cm^2
- Height (0.1 mg/l, 4 °C, 6 days): 7.4 cm
- Weight of root (0.1 mg/l, 4 °C, 6 days): 2.7 g
- Area of leaf (0.1 mg/l, 4 °C, 9 days): 13.4 cm^2
- Height (0.1 mg/l, 4 °C, 9 days): 7.8 cm
- Weight of root (0.1 mg/l, 4 °C, 9 days): 2.9 g
- Area of leaf (0.1 mg/l, 4 °C, 12 days): 13.4 cm^2
- Height (0.1 mg/l, 4 °C, 12 days): 8.1 cm
- Number of leaf (0.1 mg/l, 4 °C, 12 days): 3
- Number of tiller (0.1 mg/l, 4 °C, 12 days): 2
- Weight of root (0.1 mg/l, 4 °C, 12 days): 3.1 g
- Area of leaf (0.1 mg/l, 5 °C, 3 days): 11 cm^2
- Height (0.1 mg/l, 5 °C, 3 days): 7.5 cm
- Weight of root (0.1 mg/l, 5 °C, 3 days): 2.9 g
- Area of leaf (0.1 mg/l, 5 °C, 6 days): 12.1 cm^2
- Height (0.1 mg/l, 5 °C, 6 days): 7.5 cm
- Weight of root (0.1 mg/l, 5 °C, 6 days): 3.2 g
- Area of leaf (0.1 mg/l, 5 °C, 9 days): 16.2 cm^2
- Height (0.1 mg/l, 5 °C, 9 days): 8 cm
- Weight of root (0.1 mg/l, 5 °C, 9 days): 3.5 g
- Area of leaf (0.1 mg/l, 5 °C, 12 days): 17.9 cm^2
- Height (0.1 mg/l, 5 °C, 12 days): 8.1 cm
- Number of leaf (0.1 mg/l, 5 °C, 12 days): 3
- Number of tiller (0.1 mg/l, 5 °C, 12 days): 2
- Weight of root (0.1 mg/l, 5 °C, 12 days): 4.1 g
- Area of leaf (1 mg/l, 1 °C, 3 days): 10 cm^2
- Height (1 mg/l, 1 °C, 3 days): 7.2 cm
- Weight of root (1 mg/l, 1 °C, 3 days): 2.6 g
- Area of leaf (1 mg/l, 1 °C, 6 days): 11 cm^2
- Height (1 mg/l, 1 °C, 6 days): 7.2 cm
- Weight of root (1 mg/l, 1 °C, 6 days): 3.1 g
- Area of leaf (1 mg/l, 1 °C, 9 days): 12.4 cm^2
- Height (1 mg/l, 1 °C, 9 days): 7.3 cm
- Weight of root (1 mg/l, 1 °C, 9 days): 3.1 g
- Area of leaf (1 mg/l, 1 °C, 12 days): 13 cm^2
- Height (1 mg/l, 1 °C, 12 days): 7.9 cm
- Number of leaf (1 mg/l, 1 °C, 12 days): 3
- Number of tiller (1 mg/l, 1 °C, 12 days): 3
- Weight of root (1 mg/l, 1 °C, 12 days): 3.7 g
- Area of leaf (1 mg/l, 2 °C, 3 days): 10.2 cm^2
- Height (1 mg/l, 2 °C, 3 days): 7.2 cm
- Weight of root (1 mg/l, 2 °C, 3 days): 2.6 g
- Area of leaf (1 mg/l, 2 °C, 6 days): 11.7 cm^2
- Height (1 mg/l, 2 °C, 6 days): 7.2 cm
- Weight of root (1 mg/l, 2 °C, 6 days): 3.0 g
- Area of leaf (1 mg/l, 2 °C, 9 days): 12 cm^2
- Height (1 mg/l, 2 °C, 9 days): 7.4 cm
- Weight of root (1 mg/l, 2 °C, 9 days): 3.2 g
- Area of leaf (1 mg/l, 2 °C, 12 days): 13 cm^2
- Height (1 mg/l, 2 °C, 12 days): 8 cm
- Number of leaf (1 mg/l, 2 °C, 12 days): 3
- Number of tiller (1 mg/l, 2 °C, 12 days): 3
- Weight of root (1 mg/l, 2 °C, 12 days): 3.7 g
- Area of leaf (1 mg/l, 3 °C, 3 days): 10.4 cm^2
- Height (1 mg/l, 3 °C, 3 days): 7.4 cm
- Weight of root (1 mg/l, 3 °C, 3 days): 2.5 g
- Area of leaf (1 mg/l, 3 °C, 6 days): 12 cm^2
- Height (1 mg/l, 3 °C, 6 days): 7.5 cm
- Weight of root (1 mg/l, 3 °C, 6 days): 2.6 g
- Area of leaf (1 mg/l, 3 °C, 9 days): 12 cm^2
- Height (1 mg/l, 3 °C, 9 days): 7.7 cm
- Weight of root (1 mg/l, 3 °C, 9 days): 2.7 g
- Area of leaf (1 mg/l, 3 °C, 12 days): 13.2 cm^2
- Height (1 mg/l, 3 °C, 12 days): 8.1 cm
- Number of leaf (1 mg/l, 3 °C, 12 days): 3
- Number of tiller (1 mg/l, 3 °C, 12 days): 2
- Weight of root (1 mg/l, 3 °C, 12 days): 2.9 g
- Area of leaf (1 mg/l, 4 °C, 3 days): 10.9 cm^2
- Height (1 mg/l, 4 °C, 3 days): 7.4 cm
- Weight of root (1 mg/l, 4 °C, 3 days): 2.5 g
- Area of leaf (1 mg/l, 4 °C, 6 days): 12 cm^2
- Height (1 mg/l, 4 °C, 6 days): 7.5 cm
- Weight of root (1 mg/l, 4 °C, 6 days): 2.7 g
- Area of leaf (1 mg/l, 4 °C, 9 days): 13.2 cm^2
- Height (1 mg/l, 4 °C, 9 days): 7.8 cm
- Weight of root (1 mg/l, 4 °C, 9 days): 3.0 g
- Area of leaf (1 mg/l, 4 °C, 12 days): 14 cm^2
- Height (1 mg/l, 4 °C, 12 days): 8.2 cm
- Number of leaf (1 mg/l, 4 °C, 12 days): 3
- Number of tiller (1 mg/l, 4 °C, 12 days): 2
- Weight of root (1 mg/l, 4 °C, 12 days): 3.2 g
- Area of leaf (1 mg/l, 5 °C, 3 days): 11.1 cm^2
- Height (1 mg/l, 5 °C, 3 days): 7.4 cm
- Weight of root (1 mg/l, 5 °C, 3 days): 2.9 g
- Area of leaf (1 mg/l, 5 °C, 6 days): 13.1 cm^2
- Height (1 mg/l, 5 °C, 6 days): 7.5 cm
- Weight of root (1 mg/l, 5 °C, 6 days): 3.5 g
- Area of leaf (1 mg/l, 5 °C, 9 days): 18 cm^2
- Height (1 mg/l, 5 °C, 9 days): 8.2 cm
- Weight of root (1 mg/l, 5 °C, 9 days): 3.7 g
- Area of leaf (1 mg/l, 5 °C, 12 days): 20 cm^2
- Height (1 mg/l, 5 °C, 12 days): 8.3 cm
- Number of leaf (1 mg/l, 5 °C, 12 days): 3
- Number of tiller (1 mg/l, 5 °C, 12 days): 2
- Weight of root (1 mg/l, 5 °C, 12 days): 4.5 g
